Results as given in patent US20230084927A1, “GLUCOSE UPTAKE INHIBITORS AND USES THEREOF” (METABOMED LTD., priority 2019, published 2023).
Where two headings read alike, the source gives them in different places.

Assays:
[1] = test system: 2-DeoxyGlucose phosphorylation in murine SDH-WT cells; experiment: 2 DG phosphorylation assay; format: cell-based; conditions: Mus musculus, 0.25 h, 15 min, LC-MS
Protocol: IC50 of compound 145 and GluT1 inhibitor […] in a 2 DG phosphorylation assay was done using murine SDH-WT cells. The cells were treated for 15 min with the indicated compound at different concentrations in the presence of 2 DG. 2 DG phosphorylation was determined by LC-MS analysis and the inhibition IC50 was determined by Prism software.

ACHN WT, RCC cells = experiment: Cell viability in SDH-deficient/proficient isogenic pairs; format: cell-based
Protocol: (§1) The cells were grown in DMEM F12 supplemented with 1 mM Glutamine+3% FBS were treated with different concentrations of the indicated compounds. Cell viability was determined 72 hours later by CellTiter Glue reagent (Promega), the luminescence was measured with ClarioStar reader (BMG) and the EC50s were calculated by Prism. Murine SDHB-WT/KO, HRAS transformed isogenic pair (FIG. 12A); UOK269, Human Tumor-derived SDHB-deficient RCC in their WT counterpart with re-expression of SDHB (FIG. 12B); and ACHN, RCC cells, and their SDHB-KO (SDHB CRISPRed out) isogenic cells (FIG. 12C).

[2] = test system: ACHN SDHB −/− (SDHB CRISPRed out); experiment: as above; format: cell-based
Protocol: as §1

[3] = test system: SDH-KO-HRAS cells (SDHB-deficient); experiment: Cellular / differential toxicity assay (CellTiter-Glo, 3 days); format: cell-based, murine; conditions: for EC50: Mus musculus, 72 h
How it was run: (§2)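 Isogenic SDHB-deficient (HRAS-transformed SDH-KO) and SDH-WT cells grown in DMEM-F12 with 1 mM glutamine and 3% FBS, plated with compound (10-point dilution from 10 uM to 0.0065 uM or lower) for 3 days at 37 °C, 5% CO2. Viability by CellTiter-Glo luminescence; EC50 calculated.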

SDH-WT cells = experiment: as above; format: cell-based, murine; conditions: for EC50: Mus musculus, 72 h
How it was run: as §2

[4] = test system: THP1 (Acute Monocytic Leukemia); experiment: Toxicity assay with or without rotenone; format: cell-based; conditions: Homo sapiens, THP-1, 72 hours
Protocol: (§3) Toxicity assay: Cells were growing in 96 well plates in DMEM F12 with 17 mM glucose, 0.5 mM Sodium Pyruvate, 1 mM Glutamine and 3% FBS. The cells were treated with the indicated compounds (10 different concentrations) with or without 25 nM rotenone. Viability was determined after 72 hours of treatment using CellTiter Glo reagent (Promega). EC50 was calculated using Prism software.

[5] = test system: SDH-KO, Murine HRAS-transformed, SDHB-deficient cells; experiment: Toxicity assay with or without rotenone; format: cell-based; conditions: Mus musculus, 72 hours
Protocol: as §3

[6] = test system: KG1 (Acute Myelogenous Leukemia); experiment: Toxicity assay with or without rotenone; format: cell-based; conditions: 72 hours
Protocol: as §3

OV-90 (Ovarian cancer) = experiment: Toxicity assay with or without rotenone; format: cell-based; conditions: Homo sapiens, 72 hours
Protocol: as §3

[7] = test system: SDH-WT, Murine HRAS-transformed cells; experiment: Toxicity assay with or without rotenone; format: cell-based; conditions: Mus musculus, 72 hours
Protocol: as §3

[8] = test system: m+3 lactate secretion (glycolysis) in SDH-KO cells; experiment: Glycolysis inhibition (IC50 Lactate m+3); format: cell-based; conditions: 1 h, 25 mM 13C-glucose, one hour
Protocol: (§4) Glycolysis Inhibition (IC50 Lactate m+3)
(§5) Cell were plated in DMEM, 25 mM Glucose, 1 mM Pyruvate, 1 mM Glutamine and 10% Dialyzed serum in 96 well plates in triplicates. The day after the medium was replaced to fresh medium with 25 mM ^13C-glucose and treated with different concentrations of the compounds as indicated. One hour later the medium was collected and the level of m+3 lactate was determined by LC-MS. The IC50 of inhibition of m+3 lactate secretion into the medium was calculated with Prism.

[9] = test system: m+3 lactate secretion (glycolysis) in SDH-WT cells; experiment: Glycolysis inhibition (IC50 Lactate m+3); format: cell-based; conditions: 1 h, 25 mM 13C-glucose, one hour
Protocol: as §4, §5

UOK269 (SDHB-def.) RCC = experiment: Cell viability in SDH-deficient/proficient isogenic pairs; format: cell-based, Human
Protocol: as §1

[10] = test system: UOK269-WT (re-expression of SDHB); experiment: as above; format: cell-based, Human
Protocol: as §1

[11] = Homo sapiens, cancer cells, 72 hours
[12] = with 25 nM rotenone, read-out: EC50 (nM) with Rotenone
[13] = without rotenone, read-out: EC50
[14] = Homo sapiens, tumor-derived, 72 hours

IC50 [1]: 9.7 nM
EC50 (ACHN WT, RCC cells; [11]): 13800 nM
EC50 [2, 11]: 8.4 nM
IC50 [8]: 6.1 nM
IC50 [9]: 1.7 nM
SMILES: CC1(C)Cc2nc3sc4c(NCCc5ccc6[nH]cnc6c5)ncnc4c3cc2CO1 [Compound 145]
Ratio BAY-876/COMP 145 (ACHN WT, RCC cells): 1.7
Ratio BAY-876/COMP 145 [2]: 30
Ratio BAY-876/COMP 145 ([3]; Murine SDH-KO): 0.8
EC50 ([3]; Murine SDH-KO, transformed, 72 hours, Example 8, read-out: EC50): 0.0012 µM
EC50 ([3]; SDH-KO cells, 72 hours, Example 7, read-out: EC50 Tox): 0.0018 µM
EC50 ([3]; toxicity, SDH-KO cells, 3 days, CellTiter-Glo, read-out: EC50 (uM) SDH-KO-HTAS-C17): < 1 µM
differential effect between SDH-WT and KO cells (EC50 Tox) ([3]; cell viability, Example 7): around 80 folds
Ratio BAY-876/COMP 145 (SDH-WT cells; Murine SDH-WT): 0.4
EC50 (SDH-WT cells; Murine SDH-WT, transformed, 72 hours, Example 8, read-out: EC50): 0.34 µM
EC50 (SDH-WT cells; SDH-WT cells, 72 hours, Example 7, read-out: EC50 Tox): 0.139 µM
EC50 (SDH-WT cells; toxicity, SDH-WT cells, 3 days, CellTiter-Glo, read-out: EC50 (uM) SDH-WT): < 1 µM
EC50 ([4]; THP1, with 25 nM rotenone, read-out: EC50 (nM) with Rotenone): 16 nM
EC50 ([4]; THP1, without rotenone, read-out: EC50): 1100 nM
EC50 [5, 12]: 3 nM
EC50 [5, 13]: 3 nM
EC50 ([6]; KG1, with 25 nM rotenone, read-out: EC50 (nM) with Rotenone): 16 nM
EC50 ([6]; KG1, without rotenone, read-out: EC50): 3200 nM
EC50 (OV-90 (Ovarian cancer); OV-90, with 25 nM rotenone, read-out: EC50 (nM) with Rotenone): 15 nM
EC50 (OV-90 (Ovarian cancer); OV-90, without rotenone, read-out: EC50): 825 nM
EC50 [7, 12]: 3 nM
EC50 [7, 13]: 210 nM
Ratio BAY-876/COMP 145 (UOK269 (SDHB-def.) RCC): 8.8
EC50 (UOK269 (SDHB-def.) RCC; [14]): 1.7 nM
Ratio BAY-876/COMP 145 [10]: 2.9
EC50 [10, 14]: 1830 nM
